Laboratory results reported in US20240254087A1, “SELECTIVE, PARTIAL, AND ARRESTIN-BIASED 5-HT2A AGONISTS WITH UTILITY IN VARIOUS DISORDERS” (Saint Joseph's University, priority 2021, published 2024).
Like-named read-outs stand apart in the source and are kept apart here. Starred links: 1 amine or outer side, 2 acyl side, 3 side chain; linkers in the order of their positions; H or OH if unused. Positions of bridges follow the written chain, without caps; N, C: chain ends. Non-standard residues stand in square brackets, D forms with d. Residues, ends and D or L forms follow the SMILES beside them. X1 = CC(=O)NC(C(=O)OC(C(C)C)C(N[*:1])C(=O)[*:2])C(O)C(C)C; PhLac = O=C(O)[CH](O)Cc1ccccc1; NMeT = CN[CH](C(=O)O)[CH](C)O; NMeA = CN[CH](C)C(=O)O; NMeDha = C=C(NC)C(=O)O

How the values were obtained:
5-HT2A [1] = biological target: T1, 5-HT2A (Homo sapiens, UniProt P28223); test: cell-based; set-up: expressed in transfected cells; host or cells: HEK293T, transient
T1 sequence (P28223 whole entry): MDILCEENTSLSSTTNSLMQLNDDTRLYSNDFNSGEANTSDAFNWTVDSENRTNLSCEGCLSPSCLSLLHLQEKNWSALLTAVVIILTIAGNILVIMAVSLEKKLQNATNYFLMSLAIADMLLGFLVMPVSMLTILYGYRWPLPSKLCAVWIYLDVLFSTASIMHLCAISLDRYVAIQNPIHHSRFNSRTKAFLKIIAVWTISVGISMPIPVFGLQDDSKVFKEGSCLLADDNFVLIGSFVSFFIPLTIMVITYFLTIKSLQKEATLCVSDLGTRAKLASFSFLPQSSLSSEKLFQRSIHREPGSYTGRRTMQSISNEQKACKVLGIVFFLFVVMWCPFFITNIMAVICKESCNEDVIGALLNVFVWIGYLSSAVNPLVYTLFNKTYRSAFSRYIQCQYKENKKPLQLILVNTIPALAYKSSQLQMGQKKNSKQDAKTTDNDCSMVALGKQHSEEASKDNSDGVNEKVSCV

5-HT2A [2] = biological target: T1, 5-HT2A; conditions: cited from earlier work
male C57BL/6J mice [3] = test: Blockade of agonist-induced HTR by pretreatment; assay type: in vivo, mouse; conditions: C57BL/6J mice; pretreatment with Gq/11 or phospholipase C inhibitor
Protocol: Vehicle or the NMDA receptor antagonist PCP (5 mg/kg) was injected IP 10 min after SC administration of vehicle or 25N-NB1-Nap (16), and then the mice were placed in the test chambers 10 min later for a 60-min assessment of locomotor activity. (C). […] Mice were treated with vehicle or M100907 (0.03 mg/kg SC) 10 min prior to vehicle or PCP (5 mg/kg IP): animals were placed in the test chambers 10 min after treatment with PCP.
Male C57BL/6J mice (6-8 weeks old) from Jackson Labs (Bar Harbor, ME, USA) were used for the behavioral experiments. The mice were housed on a reversed light-dark cycle (lights on at 1900 h, off at 0700 h) in an AAAC-approved vivarium at the University of California San Diego. Mice were housed up to four per cage in a climate-controlled room and with food and water provided ad libitum except during behavioral testing. Testing was performed between 1000 and 1800 h (during the dark phase of the light-dark cycle). The studies were conducted in accordance with National Institutes Health (NIH) guidelines and were approved by the University of California San Diego Institutional Animal Care and Use Committee.
(§1) The mice were allowed to recover from the magnet implantation surgeries for at least 1 week prior to behavioral testing. HTR experiments were conducted in a well-lit room, and the mice were allowed to habituate to the room for at least 1 h prior to testing. Head twitches was assessed in a 12-cm diameter glass cylinder surrounded by a magnetometer coil. Coil voltage was low-pass filtered (2 kHz), amplified, and digitized (20-kHz sampling rate) using a Powerlab/8SP with LabChart v 7.3.2 (ADInstruments, Colorado Springs, CO, USA). […] HTR counts were analyzed using one-way ANOVAs. Dunnett's test was used for post hoc comparisons.

5-HT2B = 5-HT2B (Homo sapiens, UniProt P41595); test: BRET Gq dissociation, 5-HT2B; assay type: cell-based; set-up: expressed in transfected cells; host or cells: HEK293T, transient
5-HT2B, sequence (P41595 whole entry): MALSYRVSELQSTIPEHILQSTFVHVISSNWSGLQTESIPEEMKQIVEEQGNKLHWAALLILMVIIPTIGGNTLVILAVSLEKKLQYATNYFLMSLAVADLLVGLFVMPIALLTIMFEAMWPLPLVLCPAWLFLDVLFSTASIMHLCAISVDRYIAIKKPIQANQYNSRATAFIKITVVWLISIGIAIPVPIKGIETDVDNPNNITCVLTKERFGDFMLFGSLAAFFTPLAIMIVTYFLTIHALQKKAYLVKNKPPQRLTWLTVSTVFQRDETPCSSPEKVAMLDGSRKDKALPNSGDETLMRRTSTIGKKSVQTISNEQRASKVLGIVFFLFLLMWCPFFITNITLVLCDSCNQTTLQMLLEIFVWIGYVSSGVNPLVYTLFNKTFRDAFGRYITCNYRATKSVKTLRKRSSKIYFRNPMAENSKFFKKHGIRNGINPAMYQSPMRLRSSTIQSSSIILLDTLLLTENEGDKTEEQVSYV

5-HT2C = biological target: T2, 5-HT2C (Homo sapiens, UniProt P28335); test: BRET Gq dissociation, 5-HT2C; assay type: cell-based; set-up: expressed in transfected cells; host or cells: HEK293T, transient
T2 sequence (P28335 33-458): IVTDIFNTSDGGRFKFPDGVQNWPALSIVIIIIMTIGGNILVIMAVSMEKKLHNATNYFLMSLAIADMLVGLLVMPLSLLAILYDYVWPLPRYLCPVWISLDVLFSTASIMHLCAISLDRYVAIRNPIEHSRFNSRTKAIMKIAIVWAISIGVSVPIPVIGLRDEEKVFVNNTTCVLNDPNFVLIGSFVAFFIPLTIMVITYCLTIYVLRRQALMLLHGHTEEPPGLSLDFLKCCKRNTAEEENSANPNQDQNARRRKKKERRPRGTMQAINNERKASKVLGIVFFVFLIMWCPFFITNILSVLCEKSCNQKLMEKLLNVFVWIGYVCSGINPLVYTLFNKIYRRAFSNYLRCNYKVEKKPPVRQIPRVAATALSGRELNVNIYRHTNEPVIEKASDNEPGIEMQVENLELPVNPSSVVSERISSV

5-HT2A [4] = biological target: T1, 5-HT2A; test: cell-based; set-up: expressed in transfected cells; host or cells: HEK293T, transient; conditions: BRET, mean ± SEM; hydrochloride
5-HT2A [5] = biological target: T1, 5-HT2A; test: NanoLuc internalization assay; assay type: cell-based; conditions: 60 min
male C57BL/6J mice [6] = test: Head-twitch response (HTR) in mice; assay type: in vivo, mouse; conditions: for ED50: Mus musculus
In short: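 Head twitches in male C57BL/6J mice (6-8 weeks) carrying head-mounted magnets were detected with a magnetometer coil around a 12-cm glass cylinder during the dark phase. Coil signal was low-pass filtered at 2 kHz and digitized at 20 kHz. Counts were analyzed by one-way ANOVA with Dunnett's post hoc test.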

male C57BL/6J mice [7] = test: Tolerance: DOI-induced HTR after 5 days repeated treatment; assay type: in vivo, mouse; conditions: 5 days SC: 25N-N1-Nap 20, DOI 10, pimavanserin 1 mg/kg/day
Protocol: as §1

CCN(CC)C(=O)[C@@H]1C=C2c3cccc4[nH]cc(c34)C[C@H]2N(C)C1 [LSD, reference compound]
5-HT2A β-arrestin Emax (% 5-HT) (5-HT2A [1]; BRET, mean ± SEM): 85 ± 3 % 5-HT
Emax in a 5-HT2A-Gq calcium flux assay (5-HT2A [2]): 84.6%

C=C1C(=O)NC(C)C(=O)N(C)C(C)C(=O)NC(C(OC(=O)C(NC(C)=O)C(O)C(C)C)C(C)C)C(=O)N(C)C(C(C)OC)C(=O)OC(C)C(NC(C)=O)C(=O)OC(Cc2ccccc2)C(=O)N1C (stereo not shown) [YM-254,890, reference compound] (Ac-T[PhLac][NMeDha]A[NMeA][X1][NMeT](Me); ester 1-C; configuration not given here)
Blockade of the HTR induced by (+/−)-DOI and 25N-NBOMe (male C57BL/6J mice [3]): blocked

COc1cc(CC(C)N)c(OC)cc1I.Cl (racemic) [(±)-DOI, (±)-2,5-dimethoxy-4-iodoamphetamine hydrochloride, reference compound]
EC50 (5-HT2B): 12.6 nM
Emax (5-HT2B; read-out: 5-HT2B Gq Dissociation (BRET) EMAX ± SEM (%5-HT)): 103 ± 2.8%
EC50 (5-HT2C): 0.832 nM
Emax (5-HT2C; read-out: 5-HT2C Gq Dissociation (BRET) EMAX ± SEM (%5-HT)): 114 ± 3.4%
5-HT2A Gq Emax (% 5-HT) (5-HT2A [4]): 108.2 ± 4.2 % 5-HT
Internalization of 5-HT2A receptors (5-HT2A [5]): strong internalization
Emax (5-HT2A [1]; read-out: 5-HT2A β-arrestin Emax (% 5-HT), BRET, mean ± SEM): 88.8 ± 1.9%
Max HTR response during a 30-min assessment (maximum counts ÷ baseline response) (male C57BL/6J mice [6]): 9.9-fold increase
ED50 (male C57BL/6J mice [6]; read-out: HTR ED50 μmol/kg (95% CI), SC, except DOI and 25D-NBOMe IP): 0.8 µmol/kg
ED50 (male C57BL/6J mice [6]; read-out: HTR ED50 mg/kg (95% CI), SC, except DOI and 25D-NBOMe IP): 0.29 mg/kg
Emax in a 5-HT2A-Gq calcium flux assay (5-HT2A [2]): 81.3%
Ability of DOI (1 mg/kg IP) to induce the HTR after repeated daily treatment (male C57BL/6J mice [7]): reduced significantly

CC(C)COc1ccc(CNC(=O)N(Cc2ccc(F)cc2)C2CCN(C)CC2)cc1 [Pimavanserin]
Ability of DOI (1 mg/kg IP) to induce the HTR after repeated daily treatment (male C57BL/6J mice [7]): not altered
